Results reported in US7759375B2, “Epothilones C, D, E, and F, preparation and compositions” (priority 1996, dated 2010).
Values after ≈ are worked out from the molar mass of the structure shown. Where two headings read alike, the source gives them in different places.

Columns and labels:
[1] = tested on: KB-VI (carcinoma of the cervix multires); experiment: Growth inhibition in cell culture, KB-VI; assay type: cell-based, human
Experimental: (§1) The epothilones according to the invention were tested with cell cultures (Table 2) and for promotion of polymerization (Table 3).

[2] = tested on: A-549 (carcinoma of the lung); experiment: Growth inhibition in cell culture, A-549; assay type: cell-based, human
Experimental: as §1

[3] = tested on: Mouse fibroblasts L 929; experiment: Growth inhibition in cell culture, mouse fibroblasts L929; assay type: cell-based
Experimental: as §1

[4] = tested on: U-937 (lymphoma); experiment: Growth inhibition in cell culture, U-937; assay type: cell-based, human
Experimental: as §1

[5] = target: T1, purified tubulin from pigs' brain (Sus scrofa, UniProt P02554); assay type: biochemical, pig; conditions: 0.9 mg of tubulin/ml, 1 μM sample concentration; for Time up to the half-maximal polymerization, Agent [%] (relative activity in % of the control): control = 100, lowest values indicate the best activity; for Time up to the half-maximal polymerization of the control, Agent [s]: average of experiments w-z, control 190 s; for Time up to the half-maximal polymerization of the control, measurement w: independent experiment w; for Time up to the half-maximal polymerization of the control, measurement x: independent experiment x; for Time up to the half-maximal polymerization of the control, measurement y: independent experiment y; for Time up to the half-maximal polymerization of the control, measurement z: independent experiment z
T1 construct: purified tubulin from pigs' brain; from tissue; host or cells: pig brain
T1 sequence (P02554 whole entry): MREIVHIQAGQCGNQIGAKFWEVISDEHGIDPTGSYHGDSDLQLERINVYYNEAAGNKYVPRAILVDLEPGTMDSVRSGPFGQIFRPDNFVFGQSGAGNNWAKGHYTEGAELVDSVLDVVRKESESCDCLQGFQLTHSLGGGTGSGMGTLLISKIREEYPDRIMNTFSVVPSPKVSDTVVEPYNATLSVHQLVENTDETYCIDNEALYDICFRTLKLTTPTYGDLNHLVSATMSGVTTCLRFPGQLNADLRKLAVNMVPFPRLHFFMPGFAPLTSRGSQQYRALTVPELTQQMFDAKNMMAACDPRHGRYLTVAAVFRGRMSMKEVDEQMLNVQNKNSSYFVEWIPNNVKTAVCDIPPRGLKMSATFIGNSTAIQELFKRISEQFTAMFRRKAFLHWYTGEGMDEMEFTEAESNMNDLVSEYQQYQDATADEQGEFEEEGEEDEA
T1 sequence (P02550 whole entry partner): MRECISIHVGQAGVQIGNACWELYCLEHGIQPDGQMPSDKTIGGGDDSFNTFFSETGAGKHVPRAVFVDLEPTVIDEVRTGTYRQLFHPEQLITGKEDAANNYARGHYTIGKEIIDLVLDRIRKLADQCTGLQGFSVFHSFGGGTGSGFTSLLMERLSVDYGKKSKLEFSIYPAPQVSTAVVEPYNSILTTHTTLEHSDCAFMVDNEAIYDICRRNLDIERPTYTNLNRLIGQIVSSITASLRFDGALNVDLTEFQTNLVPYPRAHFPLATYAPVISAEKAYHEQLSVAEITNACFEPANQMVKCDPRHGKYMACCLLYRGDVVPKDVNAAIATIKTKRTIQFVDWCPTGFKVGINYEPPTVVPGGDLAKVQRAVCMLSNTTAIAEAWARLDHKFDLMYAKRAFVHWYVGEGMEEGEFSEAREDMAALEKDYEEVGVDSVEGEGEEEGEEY
Experimental: as §1
The polymerization test is an in vitro test using purified tubulin from pigs' brain. Evaluation is carried out photometrically.

[6] = tested on: K-562 (leukaemia); experiment: Growth inhibition in cell culture, K-562; assay type: cell-based, human
Experimental: as §1

[7] = tested on: KB-3.1 (carcinoma of the cervix); experiment: Growth inhibition in cell culture, KB-3.1; assay type: cell-based, human
Experimental: as §1

[8] = tested on: HL-60 (leukaemia); experiment: Growth inhibition in cell culture, HL-60; assay type: cell-based, human
Experimental: as §1

[9] = tested on: A-498 (carcinoma of the kidney); experiment: Growth inhibition in cell culture, A-498; assay type: cell-based, human
Experimental: as §1

[10] = KB-VI (carcinoma of the cervix multires)
[11] = KB-3.1 (carcinoma of the cervix)
[12] = A-498 (carcinoma of the kidney)

Compound | IC-50 [1, 10] [ng/mL] | IC-50 ([2]; A-549 (carcinoma of the lung)) [ng/mL] | IC-50 ([3]; Mouse fibroblasts L 929) [ng/mL] | IC-50 ([4]; U-937 (lymphoma)) [ng/mL] | Time up to the half-maximal polymerization, Agent [%] (relative activity in % of the control) [5] | Time up to the half-maximal polymerization of the control, Agent [s] [5] [s] | Time up to the half-maximal polymerization of the control, measurement w [5] [s] | Time up to the half-maximal polymerization of the control, measurement x [5] [s] | Time up to the half-maximal polymerization of the control, measurement y [5] [s] | Time up to the half-maximal polymerization of the control, measurement z [5] [s] | IC-50 ([6]; K-562 (leukaemia)) [ng/mL] | IC-50 [7, 11] [ng/mL] | IC-50 ([8]; HL-60 (leukaemia)) [ng/mL] | IC-50 [9, 12] [ng/mL] | IC-50 [9] [ng/mL] | IC-50 [1] [ng/mL] | IC-50 [2] [ng/mL] | IC-50 [3] [ng/mL] | IC-50 [4] [ng/mL] | IC-50 [6] [ng/mL] | other results
C/C(=C\c1csc(C)n1)[C@@H]1C[C@@H]2O[C@@H]2CCC[C@H](C)[C@H](O)[C@@H](C)C(=O)C(C)(C)[C@@H](O)CC(=O)O1 [Epothilone A, epothilone A, reference compound] | 0.3 | 0.7 | 4 | 0.2 | 39 | 74 | 95 | 60 | 70 | 70 | 0.3 | 1 | 0.2 | – | – | – | – | – | – | – | IC50 ([3]; Mouse fibroblasts, L929, concentration which reduces the growth by 50%): 4 ng/mL (≈ 8.1 nM); IC50 ([7]; HeLa KB-3.1 (human), concentration which reduces the growth by 50%): 1 ng/mL (≈ 2.03 nM)
C/C(=C\c1csc(C)n1)[C@@H]1C[C@@H]2O[C@]2(C)CCC[C@H](C)[C@H](O)[C@@H](C)C(=O)C(C)(C)[C@@H](O)CC(=O)O1 [Epothilone B, epothilone B, reference compound] | 0.3 | 0.1 | 1 | 0.2 | 14 | 26 | – | 23 | 25 | 30 | 0.3 | 0.6 | 0.2 | 1.5 | – | – | – | – | – | – | –
C/C(=C\c1csc(C)n1)[C@@H]1C/C=C\CCC[C@H](C)[C@H](O)[C@@H](C)C(=O)C(C)(C)[C@@H](O)CC(=O)O1 [Epothilone C] | 15 | 30 | 100 | 10 | 49 | 94 | 125 | 76 | 95 | 80 | 20 | 20 | 10 | 150 | – | – | – | – | – | – | –
C/C1=C/C[C@@H](/C(C)=C/c2csc(C)n2)OC(=O)C[C@H](O)C(C)(C)C(=O)[C@H](C)[C@@H](O)[C@@H](C)CCC1 [Epothilone D] | 3 | 10 | 20 | 3 | 56 | 106 | 125 | 73 | 120 | – | 10 | 12 | 3 | 20 | – | – | – | – | – | – | –
C/C(=C\c1csc(CO)n1)[C@@H]1C[C@@H]2O[C@@H]2CCC[C@H](C)[C@H](O)[C@@H](C)C(=O)C(C)(C)[C@@H](O)CC(=O)O1 [Epothilone E] | – | – | – | – | – | – | – | – | – | – | – | – | – | – | 20 | 5 | 3 | 20 | 1 | 2 | IC50 [3]: 20 ng/mL (≈ 39.2 nM); IC50 [7]: 5 ng/mL (≈ 9.81 nM); IC-50 [7]: 5 ng/mL; IC-50 [8]: 1 ng/mL
C/C(=C\c1csc(CO)n1)[C@@H]1C[C@@H]2O[C@]2(C)CCC[C@H](C)[C@H](O)[C@@H](C)C(=O)C(C)(C)[C@@H](O)CC(=O)O1 [Epothilone F] | – | – | – | – | – | – | – | – | – | – | – | – | – | – | 3 | 0.6 | 0.1 | 1.5 | 0.2 | 0.5 | IC-50 [7]: 0.5 ng/mL; IC-50 [8]: 0.3 ng/mL
